Data as given in US7807663B2, “Therapeutic agents for diabetes” (Ajinomoto Co., Inc., priority 2003, dated 2010).

System: adipose cells of rats
Test: Evaluation of the sugar transportation activity (2-[14C(U)]-deoxy-D-glucose incorporation)
Type: cell-based, Wistar rats
Details: concentration with reinforcing effect of 50% of that of insulin (100 nM) = 100%; rat adipose cells, 30 min pre-culture at 37° C., 5 min uptake
Experimental: 1. Preparation of Adipose Cells of Rats:
After the decapitation and venesection of 6 male Wistar rats (body weight: 150 to 200 g), an incision was made in the abdomen of each rat to extract 6 g in total of epididymal adipose tissues. The tissues were finely cut into 2 mm×2 mm pieces in 6 ml of KRH (Krebs-Ringer Hepes, composition: 130 mM of sodium chloride, 4.7 mM of potassium chloride, 1.2 mM of potassium dihydrogenphosphate, 1.2 mM of magnesium sulfate, 1 mM of calcium chloride and 25 mM of Hepes, pH=7.6) containing 5% of BSA (bovine serum albumin). 24 mg of collagenase (type I) was added thereto and the digestion treatment was conducted for about 40 minutes to obtain about 6 ml of isolated adipose cells. The collagenase was removed by the buffer exchange. 2% BSA/KRH solution was added to the residue for the re-suspension to obtain 45 ml of an adipose cell suspension.
2. Evaluation of the Sugar Transportation Activity:
The sugar transportation activity of the compound (I) of the present invention was evaluated with reference to a method described in a literature [Annual Review of Biochemistry, Vol. 55, p. 1059 (1986)]. In the test, 200 μL of the adipose cell suspension was poured in each polystyrene test tube, 100 μL of the solution of the test substance (by dilution of 10 mg/mL dimethyl sulfoxide solution with KRH) was added thereto, and the obtained mixture was shaken and then cultured at 37° C. for 30 minutes. The sugar transportation activity was evaluated by measuring the quantity of 2-[^14C(U)]-deoxy-D-glucose incorporated per a unit time. Namely, 2-[^14C(U)]-deoxy-D-glucose was added to the adipose cell suspension after the pre-culture (the final concentration: 0.5 μCi/sample). 5 minutes after, cytochalasin B (final concentration: 10 μM) was added to the mixture to terminate the sugar transportation. After forming a dinonyl phthalate layer, the obtained mixture was centrifuged to separate the adipose cells from the buffer. The quantity of 2-[^14C(U)]-deoxy-D-glucose contained in the adipose cell layer was determined with a liquid scintillation counter to determine the quantity of the incorporated sugar. In this evaluation system, when insulin (100 nM) having the effect of reinforcing the sugar transportation was used, the effect was about 7 times as high as that obtained in the insulin-free control group.
The results of the evaluation of the sugar transportation activity obtained by using 100 μg/mL of the compound (I) of the present invention are shown in Table 3. The sugar transportation activity in Table 3 was evaluated on the basis of the reinforcing effect of insulin (100 nM). The sugar transportation activity A in Table 3 was determined in terms of the concentration (EC50: μg/mL) of a test compound, having a reinforcing effect corresponding to 50% on the basis of the reinforcing effect of insulin (100 nM) having a reinforcing effect of 100%.
The symbols in Table 3 are as follows: • No: Compound No. in Tables 1 and 2, and • A: sugar transportation activity.

Row | A: sugar transportation activity (EC50) [µg/mL] | Structure (SMILES)
1 | 1.3 | COc1ccccc1[C@@H]1C2=C(CNC2=O)N[C@@H]2CCCC[C@H]2N1C(C)=O [Compound 1]
2 | 0.77 | CCC(=O)N1[C@@H]2CCCC[C@H]2NC2=C(C(=O)NC2)[C@H]1c1ccccc1OC [Compound 2]
3 | 4.6 | CCCC(=O)N1[C@@H]2CCCC[C@H]2NC2=C(C(=O)NC2)[C@H]1c1ccccc1OC [Compound 3]
4 | 0.5 | COc1ccccc1[C@@H]1C2=C(CNC2=O)N[C@@H]2CCCC[C@H]2N1C(=O)C1CC1 [Compound 4]
5 | 4.5 | COc1ccccc1[C@@H]1C2=C(CNC2=O)N[C@@H]2CCCC[C@H]2N1C(=O)C(F)(F)F [Compound 5]
6 | 9.5 | COc1ccccc1[C@@H]1C2=C(CNC2=O)N[C@@H]2CCCC[C@H]2N1C(=O)C(F)(F)C(F)(F)F [Compound 7]
7 | 5.9 | COc1ccccc1[C@@H]1C2=C(CNC2=O)N[C@@H]2CCCC[C@H]2N1C(=O)COC(C)=O [Compound 9]
8 | 2 | COCC(=O)N1[C@@H]2CCCC[C@H]2NC2=C(C(=O)NC2)[C@H]1c1ccccc1OC [Compound 10]
9 | 2.2 | CCOCC(=O)N1[C@@H]2CCCC[C@H]2NC2=C(C(=O)NC2)[C@H]1c1ccccc1OC [Compound 11]
10 | 4.6 | COc1ccccc1[C@@H]1C2=C(CNC2=O)N[C@@H]2CCCC[C@H]2N1C(=O)COc1ccccc1 [Compound 12]
11 | 5 | COc1ccccc1[C@@H]1C2=C(CNC2=O)N[C@@H]2CCCC[C@H]2N1C(=O)Cc1ccccc1 [Compound 13]
12 | 1.1 | CC=CC(=O)N1[C@@H]2CCCC[C@H]2NC2=C(C(=O)NC2)[C@H]1c1ccccc1OC [Compound 16]
13 | 4.8 | COC(=O)CCC(=O)N1[C@@H]2CCCC[C@H]2NC2=C(C(=O)NC2)[C@H]1c1ccccc1OC [Compound 17]
14 | 4.8 | COc1ccccc1[C@@H]1C2=C(CNC2=O)N[C@@H]2CCCC[C@H]2N1C(=O)CCCO [Compound 19]
15 | 8 | COc1ccccc1[C@@H]1C2=C(CNC2=O)N[C@@H]2CCCC[C@H]2N1C(=O)CCNC(=O)OCc1ccccc1 [Compound 22]
16 | 8 | COc1ccccc1[C@@H]1C2=C(CNC2=O)N[C@@H]2CCCC[C@H]2N1C(=O)CCN [Compound 23]
17 | 3.4 | COCCC(=O)N1[C@@H]2CCCC[C@H]2NC2=C(C(=O)NC2)[C@H]1c1ccccc1OC [Compound 24]
18 | 0.9 | COc1ccccc1[C@@H]1C2=C(CNC2=O)N[C@@H]2CCCC[C@H]2N1C(=O)CCc1ccccc1 [Compound 25]
19 | 4 | COc1ccccc1CCC(=O)N1[C@@H]2CCCC[C@H]2NC2=C(C(=O)NC2)[C@H]1c1ccccc1OC [Compound 26]
20 | 4.2 | COc1ccccc1[C@@H]1C2=C(CNC2=O)N[C@@H]2CCCC[C@H]2N1C(=O)CCc1ccc(F)c(F)c1 [Compound 27]
21 | 2.6 | COc1ccccc1[C@@H]1C2=C(CNC2=O)N[C@@H]2CCCC[C@H]2N1C(=O)CCSC [Compound 28]
22 | 5.5 | COc1ccccc1[C@@H]1C2=C(CNC2=O)N[C@@H]2CCCC[C@H]2N1C(=O)CC(C)=O [Compound 29]
23 | 10 | COc1ccccc1[C@@H]1C2=C(CNC2=O)N[C@@H]2CCCC[C@H]2N1C(=O)c1ccccn1 [Compound 33]
24 | 18 | COc1ccccc1[C@@H]1C2=C(CNC2=O)N[C@@H]2CCCC[C@H]2N1C(=O)c1ccncc1 [Compound 35]
25 | 8.6 | COc1ccccc1[C@@H]1C2=C(CNC2=O)N[C@@H]2CCCC[C@H]2N1C(=O)c1cnccn1 [Compound 36]
26 | 6 | COC(=O)N1[C@@H]2CCCC[C@H]2NC2=C(C(=O)NC2)[C@H]1c1ccccc1OC [Compound 37]

Row | A: sugar transportation activity (EC50) [µg/mL] | Structure (SMILES)
27 | 4.2 | CCOC(=O)N1[C@@H]2CCCC[C@H]2NC2=C(C(=O)NC2)[C@H]1c1ccccc1OC [Compound 38]
28 | 6 | COc1ccccc1[C@@H]1C2=C(CNC2=O)N[C@@H]2CCCC[C@H]2N1C(=O)OCc1ccccc1 [Compound 39]
29 | 11 | COc1ccccc1[C@@H]1C2=C(CNC2=O)N[C@@H]2CCCC[C@H]2N1C(=O)Oc1ccccc1 [Compound 40]
30 | 3.6 | CCNC(=O)N1[C@@H]2CCCC[C@H]2NC2=C(C(=O)NC2)[C@H]1c1ccccc1OC [Compound 41]
31 | 7 | CCCNC(=O)N1[C@@H]2CCCC[C@H]2NC2=C(C(=O)NC2)[C@H]1c1ccccc1OC [Compound 42]
32 | 15 | CCOc1ccccc1[C@@H]1C2=C(CNC2=O)N[C@@H]2CCCC[C@H]2N1C(C)=O [Compound 46]
33 | 1.9 | CCOc1ccccc1[C@@H]1C2=C(CNC2=O)N[C@@H]2CCCC[C@H]2N1C(=O)CC [Compound 47]
34 | 1.3 | CCCC(=O)N1[C@@H]2CCCC[C@H]2NC2=C(C(=O)NC2)[C@H]1c1ccccc1OCC [Compound 48]
35 | 5 | CCOc1ccccc1[C@@H]1C2=C(CNC2=O)N[C@@H]2CCCC[C@H]2N1C(=O)C(F)(F)F [Compound 49]
36 | 13 | CCOc1ccccc1[C@@H]1C2=C(CNC2=O)N[C@@H]2CCCC[C@H]2N1C(=O)COC(C)=O [Compound 50]
37 | 3.8 | CCOc1ccccc1[C@@H]1C2=C(CNC2=O)N[C@@H]2CCCC[C@H]2N1C(=O)CO [Compound 51]
38 | 3.6 | CCOc1ccccc1[C@@H]1C2=C(CNC2=O)N[C@@H]2CCCC[C@H]2N1C(=O)COC [Compound 52]
39 | 4 | CCOCC(=O)N1[C@@H]2CCCC[C@H]2NC2=C(C(=O)NC2)[C@H]1c1ccccc1OCC [Compound 53]
40 | 1.5 | CCOc1ccccc1[C@@H]1C2=C(CNC2=O)N[C@@H]2CCCC[C@H]2N1C(=O)OC [Compound 54]
41 | 7 | CCOC(=O)N1[C@@H]2CCCC[C@H]2NC2=C(C(=O)NC2)[C@H]1c1ccccc1OCC [Compound 55]
42 | 12 | CCNC(=O)N1[C@@H]2CCCC[C@H]2NC2=C(C(=O)NC2)[C@H]1c1ccccc1OCC [Compound 56]
43 | 14 | CC(=O)N1[C@@H]2CCCC[C@H]2NC2=C(C(=O)NC2)[C@H]1c1ccccc1OC(C)C [Compound 57]
44 | 2 | CCC(=O)N1[C@@H]2CCCC[C@H]2NC2=C(C(=O)NC2)[C@H]1c1ccccc1OC(C)C [Compound 58]
45 | 2 | CCOCC(=O)N1[C@@H]2CCCC[C@H]2NC2=C(C(=O)NC2)[C@H]1c1ccccc1OC(C)C [Compound 59]
46 | 4.8 | COC(=O)N1[C@@H]2CCCC[C@H]2NC2=C(C(=O)NC2)[C@H]1c1ccccc1OC(C)C [Compound 60]
47 | 0.9 | CC(=O)N1[C@@H]2CCCC[C@H]2NC2=C(C(=O)NC2)[C@H]1c1ccccc1OC1CC1 [Compound 61]
48 | 4 | CCOCC(=O)N1[C@@H]2CCCC[C@H]2NC2=C(C(=O)NC2)[C@H]1c1ccccc1OCc1ccccc1 [Compound 63]
49 | 3.6 | CC(=O)N1[C@@H]2CCCC[C@H]2NC2=C(C(=O)NC2)[C@H]1c1ccccc1OCc1ccccc1 [Compound 64]
50 | 1 | CCOCC(=O)N1[C@@H]2CCCC[C@H]2NC2=C(C(=O)NC2)[C@H]1c1ccccc1O [Compound 65]
51 | 3.7 | CC(=O)N1[C@@H]2CCCC[C@H]2NC2=C(C(=O)NC2)[C@H]1c1ccccc1O [Compound 66]
52 | 2.7 | O=C1NCC2=C1[C@@H](c1ccccc1OC(F)(F)F)N(C(=O)CO)[C@@H]1CCCC[C@H]1N2 [Compound 68]
